{
  "source": "paper PMC10512030",
  "about": "“Prolidase-proline oxidase axis is engaged in apoptosis induction by birch buds flavonol santin in endometrial adenocarcinoma cell line” (Frontiers in Molecular Biosciences, 2023)",
  "format_in_all_cases": "cell-based, human",
  "key": {"[1]": {"test_system": "breast epithelial cells MCF 10A", "assay": "Cell viability MTT assay, MCF 10A", "settings": "Homo sapiens, 48 h"}, "prolidase [2]": {"test_system": "prolidase", "assay": "Prolidase activity in homogenates of treated cells", "settings": "48 h", "procedure": "The activity of prolidase in cell homogenates was determined according to the method of ([Myara et al., 1982]). Briefly, prolidase was activated by overnight incubation of homogenates with 1 mM MnCl2 at 37°C. Then, the substrate (Gly-Pro, 100 mM) was added to each sample, followed by incubation at 37°C for 1 h. The reaction was stopped with […] trichloracetic acid and samples were then centrifuged at 15,000 × g for 10 min. After adding acetic acid and Chinard’s reagent to collected supernatant, the mixtures were incubated at 90°C for 10 min. Samples were allowed to come to room temperature and then absorbance was measured at 515 nm. Enzyme activity was reported as nanomoles of proline released from the synthetic substrate during 1 min/mg of total proteins of cell homogenate."}, "[3]": {"test_system": "normal fibroblasts (dermal fibroblasts CCD25Sk)", "assay": "Cell viability neutral red uptake assay, fibroblasts", "settings": "Homo sapiens, Fibroblast, read-out: IC50 values ± SD in neutral red uptake assay"}, "[4]": {"test_system": "endometrial adenocarcinoma Ishikawa cells", "assay": "Cell viability neutral red uptake assay, Ishikawa", "settings": "Homo sapiens"}, "HeLa cells [5]": {"test_system": "HeLa cells", "assay": "Apoptosis assay, annexin V-FITC / propidium iodide flow cytometry, HeLa", "settings": "48 h"}, "prolidase [6]": {"test_system": "prolidase", "assay": "Western immunoblot of prolidase in treated cells", "settings": "santin, 48 h", "procedure": "(§1) Adherent and floating cells were harvested and sonicated. Obtained homogenates were supplemented with 1% protease and phosphatase inhibitor cocktail (#78440, Thermo Fisher Scientific). The Lowry assay was performed to quantify protein content in the homogenates. Proteins (20–40 μg) were resolved on 7.5%, 10%, or 12% SDS-PAGE gels using the Mini-Protean Tetra system (Bio-Rad). Proteins were transferred to nitrocellulose membranes (Bio-Rad) using the Mini Trans-Blot Cell wet blotting system (Bio-Rad). Membranes were blocked with 5% skim milk for 1 h at room temperature and probed overnight at 4°C with primary antibodies. […] Membranes were incubated with ECL-HRP substrate (GE Healthcare), and the signal was detected using the BioSpectrum Imaging System (Ultra-Violet Products, Ltd.). Intensity of the bands was quantified by densitometric analysis using VisionWorks LS software (Ultra-Violet Products, Ltd.)."}, "proline oxidase": {"test_system": "proline oxidase", "assay": "Western immunoblot of proline oxidase in treated cells", "settings": "48 h", "procedure": "as §1"}, "[7]": {"test_system": "normal fibroblasts (dermal fibroblasts CCD25Sk)", "assay": "Cell viability MTT assay, fibroblasts", "settings": "Homo sapiens, Fibroblast, Fibroblasts, read-out: IC50 values ± SD in MTT assay"}, "intracellular ROS": {"test_system": "intracellular ROS", "assay": "Analysis of intracellular ROS with DCFDA", "settings": "santin 1 h", "procedure": "The oxidation-sensitive dye, 2′, 7′-dichlorofluorescein diacetate (DCFDA, D6883, Sigma-Aldrich), was used to determine the formation of intracellular ROS. Assay is based on the diffusion of DCFDA into the cell, where it is deacetylated by cellular esterases to a non-fluorescent compound, which is later oxidised by ROS into highly fluorescent 2′, 7′-dichlorofluorescein. […] Cells were treated with santin at concentrations of 6.2, 12.5, and 25 μM for 1, 24, or 48 h. Culture medium was discarded and the cells were washed with PBS and incubated with 10 μM DCFDA at 37°C for 30 min. Cell images were taken with fluorescence microscope."}, "[8]": {"test_system": "endometrial adenocarcinoma Ishikawa cells", "assay": "Cell viability MTT assay, Ishikawa", "settings": "Homo sapiens"}, "Ishikawa cells [9]": {"test_system": "Ishikawa cells", "assay": "Colony formation assay, Ishikawa", "settings": "then fresh medium 7 days"}, "[10]": {"test_system": "cervical adenocarcinoma HeLa cells", "assay": "Cell viability MTT assay, HeLa", "settings": "Homo sapiens, HeLa, HeLa"}, "HeLa cells [11]": {"test_system": "HeLa cells", "assay": "Colony formation assay, HeLa", "settings": "then fresh medium 7 days"}, "[12]": {"test_system": "cervical adenocarcinoma HeLa cells", "assay": "Cell viability neutral red uptake assay, HeLa", "settings": "Homo sapiens"}, "Ishikawa cells [13]": {"test_system": "Ishikawa cells", "assay": "Apoptosis assay, annexin V-FITC / propidium iodide flow cytometry, Ishikawa", "settings": "48 h"}, "[14]": {"settings": "24 h, NAC treated (2 mM N-acetyl-L-cysteine preincubation 2 h), read-out: IC50, neutral red uptake assay"}, "[15]": {"settings": "24 h, read-out: IC50 values ± SD in neutral red uptake assay"}, "[16]": {"settings": "24 h, without NAC, read-out: IC50, neutral red uptake assay"}, "[17]": {"settings": "48 h, NAC treated (2 mM N-acetyl-L-cysteine preincubation 2 h), read-out: IC50, neutral red uptake assay"}, "[18]": {"settings": "48 h, read-out: IC50 values ± SD in neutral red uptake assay"}, "[19]": {"settings": "48 h, without NAC, read-out: IC50, neutral red uptake assay"}, "[20]": {"settings": "48 h, negative control siRNA transfected cells, 48 h, read-out: IC50, MTT assay"}, "[21]": {"settings": "48 h, non-transfected cells, 48 h, read-out: IC50, MTT assay"}, "[22]": {"settings": "48 h, p53-silenced cells, 48 h, read-out: IC50, MTT assay"}, "[23]": {"settings": "48 h, prolidase-silenced cells, 48 h, read-out: IC50, MTT assay"}, "[24]": {"settings": "48 h, proline oxidase-silenced cells, 48 h, read-out: IC50, MTT assay"}},
  "data": [
    {"smiles": "COc1ccc(-c2oc3cc(O)c(OC)c(O)c3c(=O)c2OC)cc1", "note": "[santin, 5,7-dihydroxy-3,6,4′-trimethoxyflavone]", "values": [
      {"measurement": "IC50", "setting": "[1]", "result": "12.1 ± 1.7", "unit": "µM"},
      {"measurement": "decrease of prolidase activity (minimum value)", "setting": "prolidase [2]; HeLa cells, 100 μM santin", "result": 71, "unit": "%"},
      {"measurement": "increase of prolidase activity (maximum)", "setting": "prolidase [2]; Ishikawa cells, 50 μM santin", "result": 160, "unit": "%"},
      {"measurement": "IC50", "setting": "[3]; 24 h", "result": "> 50", "unit": "µM"},
      {"measurement": "IC50", "setting": "[3]; 48 h", "result": "> 50", "unit": "µM"},
      {"measurement": "IC50", "setting": "[4]; [14]", "result": "25.6 ± 2.1", "unit": "µM"},
      {"measurement": "IC50", "setting": "[4]; [15]", "result": "6.2 ± 1", "unit": "µM"},
      {"measurement": "IC50", "setting": "[4]; [16]", "result": "12.7 ± 1.3", "unit": "µM"},
      {"measurement": "IC50", "setting": "[4]; [17]", "result": "11 ± 1.4", "unit": "µM"},
      {"measurement": "IC50", "setting": "[4]; [18]", "result": "5.9 ± 1.1", "unit": "µM"},
      {"measurement": "IC50", "setting": "[4]; [19]", "result": "4.8 ± 1", "unit": "µM"},
      {"measurement": "% early apoptotic cells (annexin V/PI plot, lower right quadrant)", "setting": "HeLa cells [5]; santin 6.2 μM", "result": "27% ± 4%"},
      {"measurement": "% late apoptotic cells (annexin V/PI plot, upper right quadrant)", "setting": "HeLa cells [5]; santin 6.2 μM", "result": "30% ± 3%"},
      {"measurement": "% early apoptotic cells (annexin V/PI plot, lower right quadrant)", "setting": "HeLa cells [5]; santin 12.5 μM", "result": "39% ± 5%"},
      {"measurement": "% late apoptotic cells (annexin V/PI plot, upper right quadrant)", "setting": "HeLa cells [5]; santin 12.5 μM", "result": "38% ± 4%"},
      {"measurement": "prolidase expression (Western blot)", "setting": "prolidase [6]; HeLa cells", "result": "downregulated prolidase expression"},
      {"measurement": "prolidase expression (Western blot)", "setting": "prolidase [6]; Ishikawa cells", "result": "increased its level"},
      {"measurement": "proline oxidase expression (Western blot)", "setting": "proline oxidase; HeLa cells, santin 6.2 and 12.5 μM", "result": "increased proline oxidase expression"},
      {"measurement": "proline oxidase expression (Western blot)", "setting": "proline oxidase; Ishikawa cells, santin", "result": "downregulated"},
      {"measurement": "IC50", "setting": "[7]; 24 h", "result": "> 50", "unit": "µM"},
      {"measurement": "IC50", "setting": "[7]; 48 h", "result": "> 50", "unit": "µM"},
      {"measurement": "ROS generation (DCFDA fluorescence)", "setting": "intracellular ROS; HeLa cells", "result": "significant increase"},
      {"measurement": "ROS generation (DCFDA fluorescence)", "setting": "intracellular ROS; Ishikawa cells", "result": "massive ROS generation"},
      {"measurement": "IC50", "setting": "[8]; 24 h, read-out: IC50 values ± SD in MTT assay", "result": "12.9 ± 1.1", "unit": "µM"},
      {"measurement": "IC50", "setting": "[8]; [20]", "result": "5.9 ± 0.9", "unit": "µM"},
      {"measurement": "IC50", "setting": "[8]; [21]", "result": "5.7 ± 0.8", "unit": "µM"},
      {"measurement": "IC50", "setting": "[8]; [22]", "result": "5.9 ± 1.1", "unit": "µM"},
      {"measurement": "IC50", "setting": "[8]; [23]", "result": "11.1 ± 1.9", "unit": "µM"},
      {"measurement": "IC50", "setting": "[8]; [24]", "result": "14 ± 2", "unit": "µM"},
      {"measurement": "IC50", "setting": "[8]; 48 h, read-out: IC50 values ± SD in MTT assay", "result": "5.1 ± 0.9", "unit": "µM"},
      {"measurement": "decrease of number of colonies", "setting": "Ishikawa cells [9]; santin 6.2 μM for 48 h", "result": 53, "unit": "%"},
      {"measurement": "decrease of number of colonies", "setting": "Ishikawa cells [9]; santin 12.5 μM for 48 h", "result": 84, "unit": "%"},
      {"measurement": "IC50", "setting": "[10]; 24 h, 24 h, read-out: IC50 values ± SD in MTT assay", "result": "17.8 ± 2", "unit": "µM"},
      {"measurement": "IC50", "setting": "[10]; 48 h, 48 h, read-out: IC50 values ± SD in MTT assay", "result": "7 ± 0.8", "unit": "µM"},
      {"measurement": "IC50", "setting": "[10]; [20]", "result": "7.3 ± 1.1", "unit": "µM"},
      {"measurement": "IC50", "setting": "[10]; [21]", "result": "7.2 ± 0.9", "unit": "µM"},
      {"measurement": "IC50", "setting": "[10]; [22]", "result": "10.9 ± 1.9", "unit": "µM"},
      {"measurement": "IC50", "setting": "[10]; [23]", "result": "7.8 ± 1", "unit": "µM"},
      {"measurement": "IC50", "setting": "[10]; [24]", "result": "11.2 ± 1.3", "unit": "µM"},
      {"measurement": "decrease of number of colonies", "setting": "HeLa cells [11]; santin 6.2 μM for 48 h", "result": 49, "unit": "%"},
      {"measurement": "decrease of number of colonies", "setting": "HeLa cells [11]; santin 12.5 μM for 48 h", "result": 85, "unit": "%"},
      {"measurement": "IC50", "setting": "[12]; [14]", "result": "25.6 ± 2.4", "unit": "µM"},
      {"measurement": "IC50", "setting": "[12]; [15]", "result": "5.5 ± 1.3", "unit": "µM"},
      {"measurement": "IC50", "setting": "[12]; [16]", "result": "18.2 ± 2", "unit": "µM"},
      {"measurement": "IC50", "setting": "[12]; [17]", "result": "11.6 ± 1.4", "unit": "µM"},
      {"measurement": "IC50", "setting": "[12]; [18]", "result": "5.4 ± 0.8", "unit": "µM"},
      {"measurement": "IC50", "setting": "[12]; [19]", "result": "6.9 ± 1.1", "unit": "µM"},
      {"measurement": "% early apoptotic cells (annexin V/PI plot, lower right quadrant)", "setting": "Ishikawa cells [13]; santin 6.2 μM", "result": "35% ± 4%"},
      {"measurement": "% late apoptotic cells (annexin V/PI plot, upper right quadrant)", "setting": "Ishikawa cells [13]; santin 6.2 μM", "result": "15% ± 2%"},
      {"measurement": "% early apoptotic cells (annexin V/PI plot, lower right quadrant)", "setting": "Ishikawa cells [13]; santin 12.5 μM", "result": "55% ± 5%"},
      {"measurement": "% late apoptotic cells (annexin V/PI plot, upper right quadrant)", "setting": "Ishikawa cells [13]; santin 12.5 μM", "result": "21% ± 3%"}
    ]}
  ]
}
